Measured values published in patent publication US8987502B2, “Oleanolic acid amidate derivatives, preparation methods and uses thereof” (Hangzhou Bensheng Pharmaceutical Co., Ltd., priority 2011, dated 2015).
≈ marks a conversion by molar mass, not a printed value.

Legend:
PC-3 = assay: MTT solid tumor cell proliferation inhibition, PC-3; type: cell-based, human; conditions: Homo sapiens; for inhibition at 16 µg/mL: PC-3, 16 μg/mL compound, 72 h, read-out: IR (inhibition rate); for IC50: PC-3, 72 h, MTT
Experimental: (§1) Human solid tumor cell lines: Hep-2 (laryngeal carcinoma), A549 (human lung cancer), CaES-17 (esophageal cancer cell), PC-3 (prostate cancer), CNE (nasopharyngeal carcinoma cell), and SK-OV-3 (ovarian cancer cell), all of which are purchased from China Center For Type Culture Collection; RKO (human colon adenocarcinoma cell), MGC 803 (human gastric cancer cell), MG63 (osteosarcoma) and U87 MG (malignant glioma cell), all of which are purchased from Fuxiang Bio-tech Co. Ltd., Shanghai, China; PANC-1 (pancreatic cancer), Hep G2 (human liver cancer cell), Becap37 (human breast cancer cell), and Hela (human cervical cancer cell), all of which are donated by Cancer Research Institute of Zhejiang University, China.
(§2) Obtaining 4000 well-growing human solid tumor cells and inoculating them into wells of a 96-well cell culture plate. The culture medium is DMEM High Glucose cell culture medium containing 10% fetal bovine serum. The plate is placed in a carbon dioxide cell incubator (5% CO2) at 37° C. for 24 hours for incubation. After being added with the amidated oleanolic acid derivatives of different concentrations and mixed uniformly, the plate is placed in a carbon dioxide cell incubator (5% CO2) at 37° C. for 72 hours for incubation. Then the relative number of the living cells is determined by the MTT method. In this experiment, the cell proliferation inhibition rate in control group (not treated with any compound) is set as 0%.

RKO = assay: MTT solid tumor cell proliferation inhibition, RKO; type: cell-based; conditions: Homo sapiens, 72 h; for inhibition at 16 µg/mL: 16 μg/mL compound, read-out: IR (inhibition rate); for IC50: MTT
Experimental: as §1, §2

CaES-17 = assay: MTT solid tumor cell proliferation inhibition, CaES-17; type: cell-based, human; conditions: Homo sapiens, CaEs17; for inhibition at 16 µg/mL: CaES-17, 16 μg/mL compound, 72 h, read-out: IR (inhibition rate); for IC50: CaES-17, 72 h, MTT
Experimental: as §1, §2

K562/adr = assay: MTT leukemia cell proliferation inhibition, K562/adr; type: cell-based; conditions: Homo sapiens, 72 h; for inhibition at 16 µg/mL: 16 μg/mL compound, read-out: IR (inhibition rate); for IC50: MTT
Text: (§3) Leukemia cell lines: leukemia cell lines: K562/adr (drug-resistant, chronic myeloid leukemia, CML), NB4 (acute promyelocytic leukemia, AML), Kasumi-1 (acute myeloid leukemia M2 type, AML-M2), Jurkat (acute lymphoblastic leukemia, ALL), all of which are donated by Cancer Research Institute of Zhejiang University, China; and H9 (acute lymphoblastic leukemia, ALL), which is purchased from China Center for Type Culture Collection (CCTCC).
(§4) Reagents: The standard sample of oleanolic acid (OA) is purchased from Hua Kang Pharmaceutical Raw Material Factory, Shifang City, Sichuan, China; and the amidated oleanolic acid derivatives are prepared according to the present invention.
(§5) Obtaining 6000 well-growing leukemia cells and inoculating them into wells of a 96-well cell culture plate. The culture medium is the 1640 cell culture medium containing 10% fetal bovine serum. After adding the amidated oleanolic acid derivatives of different concentrations and mixing uniformly, placing the plate in a carbon dioxide cell incubator (5% CO2) at 37° C. and incubated for 72 hours. Then the relative number of viable cells is determined by the MTT method. In this experiment, the cell proliferation inhibition rate in control group (not treated with any compound) is set as 0%.

Kasumi-1 = assay: MTT leukemia cell proliferation inhibition, Kasumi-1; type: cell-based; conditions: Homo sapiens; for inhibition at 16 µg/mL: Kasumi-1, 16 μg/mL compound, 72 h, read-out: IR (inhibition rate); for IC50: Kasumi-1, 72 h, MTT
Text: as §3, §4, §5

RPMI8226 = assay: MTT multiple myeloma cell proliferation inhibition, RPMI8226; type: cell-based; conditions: Homo sapiens, RPMI-8226; for inhibition at 16 µg/mL: RPMI8226, 16 μg/mL compound, 72 h, read-out: IR (inhibition rate); for IC50: RPMI8226, 72 h, MTT
Experimental: Multiple myeloma cell lines: RPMI8226 (multiple myeloma), purchased from Fuxiang Bio-tech Co. Ltd., Shanghai, China.
as §5

Becap37 = assay: MTT solid tumor cell proliferation inhibition, Becap37; type: cell-based; conditions: Homo sapiens; for inhibition at 16 µg/mL: Becap37, 16 μg/mL compound, 72 h, read-out: IR (inhibition rate); for IC50: Becap37, 72 h, MTT
Experimental: as §1, §2

MG 63 = assay: MTT solid tumor cell proliferation inhibition, MG 63; type: cell-based, human; conditions: for IC50: Homo sapiens, MG 63, 72 h, MTT; for IR (inhibition rate): MG 63, 16 μg/mL compound, 72 h
Experimental: as §1, §2

A549 = assay: MTT solid tumor cell proliferation inhibition, A549; type: cell-based, human; conditions: Homo sapiens; for inhibition at 16 µg/mL: A549, 16 μg/mL compound, 72 h, read-out: IR (inhibition rate); for IC50: A549, 72 h, MTT
Experimental: as §1, §2

H9 = assay: MTT leukemia cell proliferation inhibition, H9; type: cell-based, human; conditions: Homo sapiens; for inhibition at 16 µg/mL: H9, 16 μg/mL compound, 72 h, read-out: IR (inhibition rate); for IC50: H9, 72 h, MTT
Text: as §3, §4, §5

MGC803 = assay: MTT solid tumor cell proliferation inhibition, MGC803; type: cell-based, human; conditions: Homo sapiens, MGC-803; for inhibition at 16 µg/mL: MGC803, 16 μg/mL compound, 72 h, read-out: IR (inhibition rate); for IC50: MGC803, 72 h, MTT
Experimental: as §1, §2

U87 MG = assay: MTT solid tumor cell proliferation inhibition, U87 MG; type: cell-based, human; conditions: Homo sapiens, U-87 MG, U87 MG, 72 h; for inhibition at 16 µg/mL: 16 μg/mL compound, read-out: IR (inhibition rate); for IC50: MTT
Experimental: as §1, §2

Jurkat = assay: MTT leukemia cell proliferation inhibition, Jurkat; type: cell-based; conditions: Homo sapiens, 72 h; for inhibition at 16 µg/mL: 16 μg/mL compound, read-out: IR (inhibition rate); for IC50: MTT
Text: as §3, §4, §5

Hela = assay: MTT solid tumor cell proliferation inhibition, Hela; type: cell-based, human; conditions: Homo sapiens, Hela, 72 h; for inhibition at 16 µg/mL: 16 μg/mL compound, read-out: IR (inhibition rate); for IC50: MTT
Experimental: as §1, §2

NB4 = assay: MTT leukemia cell proliferation inhibition, NB4; type: cell-based; conditions: Homo sapiens, NB-4; for inhibition at 16 µg/mL: NB4, 16 μg/mL compound, 72 h, read-out: IR (inhibition rate); for IC50: NB4, 72 h, MTT
Text: as §3, §4, §5

Hep-2 = assay: MTT solid tumor cell proliferation inhibition, Hep-2; type: cell-based, human; conditions: Homo sapiens; for inhibition at 16 µg/mL: Hep-2, 16 μg/mL compound, 72 h, read-out: IR (inhibition rate); for IC50: Hep-2, 72 h, MTT
Experimental: as §1, §2

CNE = assay: MTT solid tumor cell proliferation inhibition, CNE; type: cell-based, human; conditions: Homo sapiens, CNE, 72 h; for inhibition at 16 µg/mL: 16 μg/mL compound, read-out: IR (inhibition rate); for IC50: MTT
Experimental: as §1, §2

Hep G2 = assay: MTT solid tumor cell proliferation inhibition, Hep G2; type: cell-based; conditions: Homo sapiens, HepG2; for inhibition at 16 µg/mL: Hep G2, 16 μg/mL compound, 72 h, read-out: IR (inhibition rate); for IC50: Hep G2, 72 h, MTT
Experimental: as §1, §2

PANC-1 = assay: MTT solid tumor cell proliferation inhibition, PANC-1; type: cell-based, human; conditions: Homo sapiens; for inhibition at 16 µg/mL: PANC-1, 16 μg/mL compound, 72 h, read-out: IR (inhibition rate); for IC50: PANC-1, 72 h, MTT
Experimental: as §1, §2

SK-OV-3 = assay: MTT solid tumor cell proliferation inhibition, SK-OV-3; type: cell-based, human; conditions: Homo sapiens; for inhibition at 16 µg/mL: SK-OV-3, 16 μg/mL compound, 72 h, read-out: IR (inhibition rate); for IC50: SK-OV-3, 72 h, MTT
Experimental: as §1, §2

Row | IC50 (PC-3) | IC50 (RKO) | IC50 (CaES-17) | IC50 (K562/adr) | IC50 (Kasumi-1) | IC50 (RPMI8226) | IC50 (Becap37) | IC50 (MG 63) | IC50 (A549) | IC50 (H9) | SMILES | inhibition at 16 µg/mL (PC-3) | inhibition at 16 µg/mL (RKO) | inhibition at 16 µg/mL (CaES-17) | inhibition at 16 µg/mL (K562/adr) | inhibition at 16 µg/mL (Kasumi-1) | inhibition at 16 µg/mL (RPMI8226) | inhibition at 16 µg/mL (Becap37) | IR (inhibition rate) (MG 63) | inhibition at 16 µg/mL (A549) | inhibition at 16 µg/mL (H9) | also measured
1 | 19.9 µg/mL (≈ 37.4 µM) | > 16 µg/mL | > 16 µg/mL | 6.29 µg/mL (≈ 11.8 µM) | 15.4 µg/mL (≈ 29 µM) | 6.49 µg/mL (≈ 12.2 µM) | > 16 µg/mL | > 16 µg/mL | > 16 µg/mL | 14 µg/mL (≈ 26.3 µM) | CC1(C)CC[C@]2(NC(=O)c3ccccc3)CC[C@]3(C)C(=CC[C@@H]4[C@@]5(C)CC[C@H](O)C(C)(C)[C@@H]5CC[C@]43C)[C@@H]2C1 [BS-OA-101] | 45.7% | 22.5% | 25.8% | 88.7% | 53.8% | 97.5% | 18.1% | 17.3% | 37.6% | 58.7% | inhibition at 16 µg/mL (MGC803): 33.2%; IC50 (MGC803): > 16 µg/mL; inhibition at 16 µg/mL (U87 MG): 36.4%; IC50 (U87 MG): > 16 µg/mL; inhibition at 16 µg/mL (Jurkat): 30%; IC50 (Jurkat): > 16 µg/mL; inhibition at 16 µg/mL (Hela): 57%; IC50 (Hela): 15.8 µg/mL (≈ 29.8 µM); inhibition at 16 µg/mL (NB4): 96.1%; IC50 (NB4): 8.2 µg/mL (≈ 15.4 µM); inhibition at 16 µg/mL (Hep-2): 7.5%; IC50 (Hep-2): > 16 µg/mL; inhibition at 16 µg/mL (CNE): 36.2%; IC50 (CNE): > 16 µg/mL; inhibition at 16 µg/mL (Hep G2): 16.1%; IC50 (Hep G2): > 16 µg/mL; inhibition at 16 µg/mL (PANC-1): 20.6%; IC50 (PANC-1): > 16 µg/mL; inhibition at 16 µg/mL (SK-OV-3): 39.7%; IC50 (SK-OV-3): > 16 µg/mL
2 | > 16 µg/mL | > 16 µg/mL | > 16 µg/mL | 5.7 µg/mL (≈ 10.1 µM) | > 16 µg/mL | 9.63 µg/mL (≈ 17.1 µM) | > 16 µg/mL | > 16 µg/mL | > 16 µg/mL | > 16 µg/mL | COc1cccc(C(=O)N[C@]23CCC(C)(C)C[C@H]2C2=CC[C@@H]4[C@@]5(C)CC[C@H](O)C(C)(C)[C@@H]5CC[C@@]4(C)[C@]2(C)CC3)c1 [BS-OA-103] | 24.5% | -11.7% | -5.9% | 87.3% | 19.9% | 90.2% | 4.6% | −25.4% | 29.8% | 34.1% | inhibition at 16 µg/mL (MGC803): 7%; IC50 (MGC803): > 16 µg/mL; inhibition at 16 µg/mL (U87 MG): 3.7%; IC50 (U87 MG): > 16 µg/mL; inhibition at 16 µg/mL (Jurkat): -2.5%; IC50 (Jurkat): > 16 µg/mL; inhibition at 16 µg/mL (Hela): 38.4%; IC50 (Hela): > 16 µg/mL; inhibition at 16 µg/mL (NB4): 48.5%; IC50 (NB4): 16 µg/mL (≈ 28.5 µM); inhibition at 16 µg/mL (Hep-2): 10.6%; IC50 (Hep-2): > 16 µg/mL; inhibition at 16 µg/mL (CNE): 26%; IC50 (CNE): > 16 µg/mL; inhibition at 16 µg/mL (Hep G2): 8%; IC50 (Hep G2): > 16 µg/mL; inhibition at 16 µg/mL (PANC-1): 33.7%; IC50 (PANC-1): > 16 µg/mL; inhibition at 16 µg/mL (SK-OV-3): 17.2%; IC50 (SK-OV-3): > 16 µg/mL
